“Also recorded” adds a separate entry of the source.
Experiments:
[1] = molecular target: human μ opioid receptor (Homo sapiens, UniProt P35372); experiment: [35S]GTPγS binding, stimulation and inhibition of agonist-stimulated binding; assay type: biochemical; conditions: for Functional description / Imax (% maximal inhibition): Mu Opioid Receptor; for Imax (% maximal inhibition): inhibition of binding stimulated by 200 nM DAMGO; for Emax: read-out: Emax (% maximal stimulation)
[2] = molecular target: human κ opioid receptor (Homo sapiens, UniProt P41145); experiment: as above; assay type: biochemical; conditions: for Functional description: Kappa Opioid Receptor; for Emax: read-out: Emax (% maximal stimulation)
Sequence of human κ opioid receptor (P41145 whole entry): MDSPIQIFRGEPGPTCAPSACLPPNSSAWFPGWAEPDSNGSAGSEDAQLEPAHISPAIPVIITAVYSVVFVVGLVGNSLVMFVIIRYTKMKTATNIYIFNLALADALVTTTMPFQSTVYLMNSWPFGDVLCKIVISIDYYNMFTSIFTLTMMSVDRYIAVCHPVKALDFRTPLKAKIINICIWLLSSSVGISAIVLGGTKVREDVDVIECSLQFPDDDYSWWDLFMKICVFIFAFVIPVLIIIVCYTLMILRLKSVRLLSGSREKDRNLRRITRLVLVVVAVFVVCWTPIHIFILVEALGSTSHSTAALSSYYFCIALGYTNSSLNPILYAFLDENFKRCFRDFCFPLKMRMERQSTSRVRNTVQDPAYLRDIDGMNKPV

Sequence of human μ opioid receptor (P35372 whole entry): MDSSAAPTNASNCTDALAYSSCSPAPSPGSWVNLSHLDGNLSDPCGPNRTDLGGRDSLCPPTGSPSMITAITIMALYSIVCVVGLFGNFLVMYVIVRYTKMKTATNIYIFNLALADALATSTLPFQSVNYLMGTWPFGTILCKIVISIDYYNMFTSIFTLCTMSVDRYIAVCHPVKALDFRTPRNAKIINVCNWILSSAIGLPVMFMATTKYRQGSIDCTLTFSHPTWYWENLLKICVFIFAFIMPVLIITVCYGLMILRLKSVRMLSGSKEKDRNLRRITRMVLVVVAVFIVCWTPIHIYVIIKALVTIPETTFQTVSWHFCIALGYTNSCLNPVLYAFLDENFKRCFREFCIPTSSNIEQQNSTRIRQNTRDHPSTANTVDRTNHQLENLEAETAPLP

Row | Structure (SMILES) | Functional description [1] | Imax (% maximal inhibition) [1] | Emax [1] | Functional description [2] | Emax [2]
1 | C[C@H]1C2Cc3ccc(C(=O)NCCc4ccc(-c5ccccn5)cc4)cc3[C@@]1(C)CCN2CC1CC1 [Compound 6] | partial agonist | 87 ± 3.1 % maximal inhibition | 31 ± 1.8% | agonist | 50 ± 2.6%
2 | C[C@H]1C2Cc3ccc(C(=O)NCCc4ccc(-c5cccnc5)cc4)cc3[C@@]1(C)CCN2CC1CC1 [Compound 5] | partial agonist | 83 ± 2.9 % maximal inhibition | 28 ± 2.2% | agonist | 52 ± 0.55%
3 | CC1C2Cc3ccc(C(=O)NCCc4ccc(-c5ccccc5)cc4)cc3C1(C)CCN2CC1CC1 (racemic) [Compound 1, N-(2-[1,1′-biphenyl]-4-ylethyl)-3-(cyclopropylmethyl)-1,2,3,4,5,6-hexahydro-6,11-dimethyl-2,6-methano-3-benzazocine-8-carboxamide, reference compound] | – | – | – | agonist | 76 ± 6.7%
4 | C[C@H]1C2Cc3ccc(C(N)=O)cc3[C@@]1(C)CCN2CC1CC1 [Compound 2, 8-carboxamidocyclazocine, reference compound] | functional partial agonists; also recorded: partial agonist | 76 ± 1.1 % maximal inhibition | 24 ± 1.9% | agonist | 87 ± 6.5%
5 | C[C@H]1C2Cc3ccc(C(=O)NCCc4ccc(-c5ccccc5)cn4)cc3[C@@]1(C)CCN2CC1CC1 [Compound 8] | partial agonist | 53 ± 5.4 % maximal inhibition | 25 ± 1.1% | agonist | 64 ± 2.4%
6 | C[C@H]1C2Cc3ccc(C(=O)NCCc4ccc(-c5ccncc5)cc4)cc3[C@@]1(C)CCN2CC1CC1 [Compound 4] | partial agonist | 79 ± 3.3 % maximal inhibition | 33 ± 0.68% | agonist | 64 ± 5.1%
7 | C[C@H]1C2Cc3ccc(C(=O)NCCc4ccc(-c5ccccc5)nc4)cc3[C@@]1(C)CCN2CC1CC1 [Compound 7] | partial agonist | 87 ± 1.2 % maximal inhibition | 30 ± 2.3% | agonist | 52 ± 4.8%
